Experimental data from patent publication US4372949A, “Treatment of cancer with carcinostatic and immunostimulating agent containing lysophospholipid and phospholipid” (Toyama Chemical Co., Ltd., priority 1979, dated 1983).

Columns and labels:
[1] = tested on: Lewis lung cancerous cells; test: Inhibitory effect against metastasis of Lewis lung cancer; type: in vivo, mice (BDF1 strain); conditions: L-lysolecithin 40 mg/kg i.p., 10 days
Experimental: 1×10^6 Lewis lung cancerous cells were given intravenously to BDF1 strain (female, 13-week old) mice, and after 24 hours, L-lysolecithin (40 mg/kg) was administered intraperitoneally while a mixture of a fat emulsion (20 ml/kg) and L-lysolecithin (40 mg/kg) was administered intravenously, each for a period of 10 days repeatedly, and at the 11th day, the breast of each test mouse was cut open and the dry weight of the lung (mg mean ± S.E.) was measured. The inhibitory effect was judged by the ratio to the control group (T/C).

[2] = tested on: L-1210 leukemic cells; test: Pre-administration effect to L-1210 (L-1210 allograft); type: in vivo, mice (ddN strain); conditions: i.p., 7 days pre-administration
Experimental: Each test compound was repeatedly administered (at a dose of 40 mg/kg as calculated in terms of L-lysolecithin) intraperitoneally to ddN strain mice (male, 6-week old) for a period of 7 days, and after one-week no-administration period, 1×10^6 L-1210 leukemic cells were inoculated intraperitoneally and the average number of survival days of the test animal was determined.

[3] = tested on: mice; test: Acute toxicity; type: in vivo; conditions: female, intravenous injection
Text: The results of measurement of acute toxicity on some typical compounds prepared according to this invention are shown in Table 9.
(Test animal: mice, female; intravenous injection)

[4] = Table 5, 40 mg/kg L-lysolecithin (No. 7: + 20 ml/kg fat emulsion)

Substance: L-lysolecithin
- Dry lung weight (mean ± S.E.) [1]: 34.3 ± 1.6 mg
- Increased weight (mean ± S.E.) [1]: 4.7 ± 1.6 mg
- T/C ([1]; ratio to control group): 29.0%
- Average number of survival days ([2]; Table 4, 40 mg/kg as L-lysolecithin): > 21.0 days
- Number of survival days (mean ± S.E.) [2, 4]: 21.0 days
- Number of survivor for 21 days/Number of mice tested [2, 4]: 6/6
- LD50 [3]: 122 mg/kg
